Measurements from paper PMC6586847, “ATP binds and inhibits the neurodegeneration-associated fibrillization of the FUS RRM domain” (Communications Biology, 2019).

Molecular target: T1, FUS RRM domain (Homo sapiens, UniProt P35637)
T1 construct: RRM domain (285–370)
T1 sequence (P35637 284-371 limits assumed): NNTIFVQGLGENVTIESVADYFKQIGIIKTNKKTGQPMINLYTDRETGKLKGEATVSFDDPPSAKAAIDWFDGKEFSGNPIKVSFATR
Experiment: 1H-15N HSQC NMR titration, one-site fit of chemical shift differences
Format: binding

SMILES	Kd [mM]
Nc1ncnc2c1ncn2[C@@H]1O[C@H](COP(=O)(O)O)[C@@H](O)[C@H]1O [AMP]	17.2 ± 2.61
O=P(O)(O)OP(=O)(O)OP(=O)(O)O [PPP]	12.6 ± 3.53
Nc1ncnc2c1ncn2[C@@H]1O[C@H](COP(=O)(O)OP(=O)(O)OP(=O)(O)O)[C@@H](O)[C@H]1O [ATP]	3.77 ± 0.49
